The text below walks through data of article PMC11358882, “Neuroprotective Effects of Phenolic Constituents from Drynariae Rhizoma” (Pharmaceuticals, 2024).

The test system of this test is sAPPβ. Kind of test: Western blot of sAPPβ levels in APP-CHO cells. The test is classed as cell-based, Chinese hamster. Conditions: 1.0 μM, 24 h. On the procedure: APP-CHO cells were seeded in six-well plates at a density of 6 × 10^5 cells/1000 μL of medium per well and incubated at 37 °C overnight for cell attachment. Then, the medium was replaced with FBS-free RPMI 1640 for 1 h, followed by treatment with test samples at 37 °C. After 24 h, the cells were washed with PBS and lysed in Laemmli sample buffer. The collected cell lysates were boiled at 100 °C for 10 min. For Western blot analysis, 20 μg of proteins were separated by 7.5% SDS-PAGE and transferred to a PVDF membrane using Trans-Blot® Turbo TM (Bio-Rad, Hercules, CA, USA). The membrane was blocked with 5% skim milk in PBS for 1 h and incubated with primary antibodies overnight at 4 °C. The primary antibodies used were sAPPβ antibody, BACE1 antibody, and α-tubulin antibody diluted at 1:1000, 1:1000, and 1:25,000, respectively. After washing with PBS-T (0.1% Tween 20 in PBS) three times for 10 min each, secondary antibodies, diluted to 1:2500, were incubated for 1 h. Protein detection was performed using ECL solution reagent and protein visualization (ChemiDoc^TM XRS+., Bio-Rad, Hercules, CA, USA). The signal intensity of the bands was quantified and normalized to the signal intensity of the α-tubulin band. Results were expressed as a percentage of DMSO-treated control.

Consider `C[C@@H]1O[C@@H](Oc2c(-c3ccc(O)cc3)oc3cc(O[C@@H]4O[C@H](CO)[C@@H](O)[C@H](O)[C@H]4O)cc(O)c3c2=O)[C@H](O)[C@H](O)[C@H]1O` [Compound 6, kaempferol 3-O-rhamnoside 7-O-glucoside], for which the “reduction of sAPPβ levels compared to DMSO-treated controls” value turned out to be 30%.

Turning to `O=c1c(O[C@@H]2O[C@H](CO)[C@@H](O)[C@H](O)[C@H]2O)c(-c2ccc(O)cc2)oc2cc(O[C@@H]3O[C@@H](CO)[C@H](O)[C@H]3O)cc(O)c12` [Compound 7, kaempferol 3-o-b-d-glucopyranoside-7-o-a-L-arabinofuranoside], the “reduction of sAPPβ levels compared to DMSO-treated controls” value is given as 30%.
